# Measured values as given in patent US7741040B2, “Methods and compositions for detecting cancers” (Case Western Reserve University, priority 2002, dated 2010).
# System: SLC5A8 silenced colon cancer cell lines
# Assay: RT-PCR detection of SLC5A8 transcript after 5-azacytidine treatment
# Format: cell-based, human
# Settings: 5-azacytidine 1.5 μg/ml, 24 h on day 2 and day 5
# Description: Amplification and Sequencing of SLC5A8. The primers used for RT-PCR assay of a SLC5A8 fragment are 5′-TCCGAGGTCTACCGTTTTG-3′, and 5′-GGGCA GGGGC ATAAA TAAC-3′. The PCR parameters were 35 cycles of 95° C. (45s), 54° C. (45s), 72° C. (60s), 72° C. (10 min), and 4° C. to cool. The full length SLC5A8 ORF was amplified using primers: 5′TCCGGGATAAGAAGTGCG-3′ and 5′-[…]-3′. GC-rich cDNA polymerase kit (Clonetech) was used and PCR parameters were 35 cycles of 95° C. (45s), 62° C. (45s), 72° C. (90s), 72° C. (10 min), and 4° C. to cool. Sequencing primers were: 5′-TTTGT GGTGGTCA TCAGCG-3′,5′-GGGCAGGGGCATAAATAAC-3′,5′-AGGCTGTG GTGATGCAAGGT-3′,5′-TTAATGCCTTAGCAGCAG-3′, and 5′-CCTCCACTT CCTGAGAGAAC-3′.
# 5-Azacytidine Treatment. The treatment was performed as described previously (Veigl et al., 1998, Proc Natl Acad Sci USA 95: 8698-8702). Briefly, cells were treated for 24 h on day 2 and day 5 with 5-azacytidine (Sigma) at 1.5 μg/ml. The medium was changed 24 h after addition of the 5-azacytidine (i.e., on day 3 and day 6).
smiles,measurement,value
Nc1ncn([C@@H]2O[C@H](CO)[C@@H](O)[C@H]2O)c(=O)n1 [5-azacytidine],reactivation of SLC5A8 expression (cell lines reactivated of cell lines tested),6 of 8
